Measurements published in paper PMC11314561, “Design and Synthesis of Novel Aminoindazole-pyrrolo[2,3-b]pyridine Inhibitors of IKKα That Selectively Perturb Cellular Non-Canonical NF-κB Signalling” (Molecules, 2024).

Columns and labels:
Test in all cases: kinase panel
Assay type in all cases: biochemical
PKCα(h) = PKCα(h) (Homo sapiens, UniProt P17252)
Text: (§1) We profiled three compounds from the series across the kinome (Table S1).
(§2) Ta b l e S1. The % inhibition of compounds 4, 5r [SU1261], and 6g [SU1349] against a
(§3) panel of kinase enzymes. We proϐiled three compounds from the series across 231
(§4) kinases. For SU1349, given its structural similarity with SU1261, we selected 98 from the
(§5) Tested kinase % inhibiƟon

c-RAF(h) = c-RAF(h) (Homo sapiens, UniProt P04049)
Text: as §1, §2, §3, §4, §5

Haspin(h) = target: T1, Haspin(h) (Homo sapiens, UniProt Q8TF76)
T1 sequence (Q8TF76 1-798): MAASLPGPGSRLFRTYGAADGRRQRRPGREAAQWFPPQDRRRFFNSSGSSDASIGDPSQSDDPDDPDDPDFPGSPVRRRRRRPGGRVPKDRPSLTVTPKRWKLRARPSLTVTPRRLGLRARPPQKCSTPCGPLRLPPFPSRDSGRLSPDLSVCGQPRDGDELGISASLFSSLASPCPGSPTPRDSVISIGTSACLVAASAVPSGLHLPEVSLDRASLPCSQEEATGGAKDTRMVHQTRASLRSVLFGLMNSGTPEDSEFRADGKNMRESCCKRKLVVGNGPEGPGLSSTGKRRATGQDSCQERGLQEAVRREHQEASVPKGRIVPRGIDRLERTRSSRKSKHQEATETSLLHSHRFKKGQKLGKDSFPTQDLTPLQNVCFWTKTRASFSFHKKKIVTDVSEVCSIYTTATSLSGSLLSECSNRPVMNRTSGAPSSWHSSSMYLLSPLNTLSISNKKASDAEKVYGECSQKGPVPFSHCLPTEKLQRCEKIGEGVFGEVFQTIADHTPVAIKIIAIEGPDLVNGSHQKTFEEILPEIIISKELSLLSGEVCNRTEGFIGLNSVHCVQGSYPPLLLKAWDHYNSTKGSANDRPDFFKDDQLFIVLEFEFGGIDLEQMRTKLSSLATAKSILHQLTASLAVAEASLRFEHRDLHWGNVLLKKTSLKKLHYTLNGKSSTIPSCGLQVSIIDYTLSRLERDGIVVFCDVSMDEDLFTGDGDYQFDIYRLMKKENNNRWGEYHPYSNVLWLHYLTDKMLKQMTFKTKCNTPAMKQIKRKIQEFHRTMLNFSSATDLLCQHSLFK
Text: as §1, §2, §3, §4, §5

CaMKI(h) = CaMKI(h) (Homo sapiens, UniProt Q14012)
Text: as §1, §2, §3, §4, §5

PRAK(h) = target: T2, PRAK(h) (Homo sapiens, UniProt Q8IW41)
T2 sequence (Q8IW41 1-473): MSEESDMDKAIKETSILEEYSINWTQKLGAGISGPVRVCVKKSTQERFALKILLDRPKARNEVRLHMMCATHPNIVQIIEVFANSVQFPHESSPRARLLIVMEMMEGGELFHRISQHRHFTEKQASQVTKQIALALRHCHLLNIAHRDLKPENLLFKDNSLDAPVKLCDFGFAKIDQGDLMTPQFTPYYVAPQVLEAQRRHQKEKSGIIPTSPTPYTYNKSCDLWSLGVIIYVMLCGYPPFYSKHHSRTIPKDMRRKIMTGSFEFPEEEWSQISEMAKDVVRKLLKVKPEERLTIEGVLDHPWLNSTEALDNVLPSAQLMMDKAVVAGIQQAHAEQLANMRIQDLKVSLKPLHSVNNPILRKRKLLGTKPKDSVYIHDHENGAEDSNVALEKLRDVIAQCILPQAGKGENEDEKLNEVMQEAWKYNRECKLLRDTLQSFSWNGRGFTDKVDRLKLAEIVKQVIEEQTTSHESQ
Text: as §1, §2, §3, §4, §5

CaMKIV(h) = target: T3, CaMKIV(h) (Homo sapiens, UniProt Q16566)
T3 sequence (Q16566 1-473): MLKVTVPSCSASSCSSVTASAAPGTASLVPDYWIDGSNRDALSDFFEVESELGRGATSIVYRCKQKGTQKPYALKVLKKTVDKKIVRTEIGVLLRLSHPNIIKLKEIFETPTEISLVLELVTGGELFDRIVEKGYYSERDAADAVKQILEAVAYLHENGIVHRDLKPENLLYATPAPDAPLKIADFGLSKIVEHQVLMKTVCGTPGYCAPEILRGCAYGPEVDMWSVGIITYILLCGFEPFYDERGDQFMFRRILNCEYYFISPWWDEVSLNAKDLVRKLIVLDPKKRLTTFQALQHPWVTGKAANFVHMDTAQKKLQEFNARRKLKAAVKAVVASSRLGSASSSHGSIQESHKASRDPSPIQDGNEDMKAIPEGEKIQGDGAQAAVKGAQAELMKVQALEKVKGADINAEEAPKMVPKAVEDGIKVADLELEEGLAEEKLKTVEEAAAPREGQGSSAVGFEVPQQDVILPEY
Text: as §1, §2, §3, §4, §5

CaMKI(h), sequence (Q14012 whole entry): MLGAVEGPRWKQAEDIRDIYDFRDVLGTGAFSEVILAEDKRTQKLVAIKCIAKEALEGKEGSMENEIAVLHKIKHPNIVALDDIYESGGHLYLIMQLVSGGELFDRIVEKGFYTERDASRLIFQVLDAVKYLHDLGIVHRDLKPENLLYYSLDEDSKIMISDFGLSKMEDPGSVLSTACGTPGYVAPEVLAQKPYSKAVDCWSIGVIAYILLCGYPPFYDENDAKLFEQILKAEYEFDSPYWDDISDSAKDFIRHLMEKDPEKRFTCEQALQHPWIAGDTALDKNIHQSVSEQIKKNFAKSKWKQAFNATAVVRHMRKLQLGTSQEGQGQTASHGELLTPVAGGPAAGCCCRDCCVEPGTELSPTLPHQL
c-RAF(h), sequence (P04049 whole entry): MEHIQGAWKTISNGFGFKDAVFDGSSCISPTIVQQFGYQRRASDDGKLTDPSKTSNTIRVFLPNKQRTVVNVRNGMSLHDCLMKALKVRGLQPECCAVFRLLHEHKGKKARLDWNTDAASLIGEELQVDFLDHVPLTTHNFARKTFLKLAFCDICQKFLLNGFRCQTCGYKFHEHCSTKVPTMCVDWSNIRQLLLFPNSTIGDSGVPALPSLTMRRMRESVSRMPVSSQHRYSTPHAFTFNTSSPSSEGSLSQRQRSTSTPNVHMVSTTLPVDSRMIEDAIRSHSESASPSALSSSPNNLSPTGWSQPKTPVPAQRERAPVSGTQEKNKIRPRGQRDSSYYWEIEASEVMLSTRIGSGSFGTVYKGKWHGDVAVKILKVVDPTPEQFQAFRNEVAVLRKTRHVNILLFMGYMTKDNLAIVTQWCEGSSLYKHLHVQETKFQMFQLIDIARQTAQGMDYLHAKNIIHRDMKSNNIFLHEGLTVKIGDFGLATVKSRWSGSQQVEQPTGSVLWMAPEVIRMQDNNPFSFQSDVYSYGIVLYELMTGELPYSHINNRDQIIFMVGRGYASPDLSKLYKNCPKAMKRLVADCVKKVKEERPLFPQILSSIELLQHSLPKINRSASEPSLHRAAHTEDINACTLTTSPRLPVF

Row | inhibition at 1 µM (PKCα(h)) [%] | inhibition at 1 µM (c-RAF(h)) [%] | inhibition at 1 µM (Haspin(h)) [%] | inhibition at 1 µM (CaMKI(h)) [%] | inhibition at 1 µM (PRAK(h)) [%] | inhibition at 1 µM (CaMKIV(h)) [%] | SMILES
1 | -1 | 2 | 92 | 1 | 44 | -9 | Nc1n[nH]c2ccc(-c3ccnc4[nH]c(-c5ccnc(OCc6ccccc6)c5)cc34)cc12 [Compound 6g [SU1349]]
2 | 5 | 29 | 101 | 9 | 97 | 4 | Nc1n[nH]c2ccc(-c3ccnc4[nH]c(-c5ccccc5)cc34)cc12 [Compound 4]
3 | 23 | 20 | 94 | -6 | 91 | 6 | Nc1n[nH]c2ccc(-c3ccnc4[nH]c(-c5cccc(OCc6ccccc6)c5)cc34)cc12 [Compound 5r [SU1261]]
